Results published in US20250389725A1, “METHOD FOR DETECTION OF SULFUR-CONTAINING AMINO ACID AS BIOMARKER FOR GLIOBLASTOMA USING NOVEL FLUORESCENT PROBE AND FLUORESCENCE-GUIDED SURGERY IMAGING APPLICATION THEREOF” (UNIVERSITY-INDUSTRY COOPERATION GROUP OF KYUNG HEE …, priority 2023, published 2025).

Tests used:
Type in all cases: cell-based
[1] = system: glioblastoma cells (U87MG); test: CCK-8 cell viability (toxicity), U87MG; details: CCK-8, compared to leaving groups with similar structures
Description: (§1) Specifically, for cell preparation, approximately 5×10^3 cells each of glioblastoma cells (U87MG), hepatoma cells (Huh7), cervical cancer cells (HeLa), and skin cancer cells (B16F10) were treated in a 96-well clear plate (SPL Life Science, Ref. of Korea), cultured at 37° C. for 24 hours, and then treated with Compound 1 (NPO-o-Pyr, 10 μM) and analyzed using a CCK-8 assay kit (Dofindo, Japan) according to the manufacturer's instructions. Absorbance levels were analyzed at a wavelength of 490 nm by a microplate reader (SpctraMax Gemini EM, Molecular Devices, US). 2-Hydroxypyridine and various leaving groups with similar structures thereto were treated in U87MG, Huh7, HeLa, and B16F10 cells, and the cell viability was measured, which was shown in FIG. 12.

[2] = system: cervical cancer cells (HeLa); test: CCK-8 cell viability (toxicity), HeLa; details: CCK-8, compared to leaving groups with similar structures
Description: as §1

[3] = system: hepatoma cells (Huh7); test: CCK-8 cell viability (toxicity), Huh7; details: Huh7, CCK-8, compared to leaving groups with similar structures
Description: as §1

[4] = system: skin cancer cells (B16F10); test: CCK-8 cell viability (toxicity), B16F10; details: B16F10, CCK-8, compared to leaving groups with similar structures
Description: as §1

Measured: toxicity (cell viability)

Oc1ccccn1 [2-hydroxypyridine]
very low: all assays above
